Experimental data taken from US20170333390A1, “PHYTOCHEMICAL COMPOSITIONS INCLUDING SESAMIN FOR ANTI-INFLAMMATORY, ANTI-CYTOKINE STORM, AND OTHER USES” (CHIANG MAI UNIVERSITY, priority 2009, published 2017).

Tested on: cartilage tissue cultures exposed to IL-1 (ECM degradation, HA release)
Experiment: HA release from IL-1 exposed cartilage tissue cultures (ELISA)
Type: cell-based
Conditions: relative to control culture, sulfate
Experimental: Experiments were conducted to evaluate the anti-inflammatory effects of combinations of particular phytochemical compositions provided by the present disclosure with known substances, compositions, or drugs that are associated with an anti-inflammatory effect and/or an anti-degenerative or tissue integrity preservation effect in connective tissue. In the context of the present disclosure, the term “connective tissue” encompasses connective tissue proper (e.g., dense or fibrous connective tissue), as well as specialized connective tissue such as cartilage or bone. More specifically, experiments were conducted to evaluate the anti-inflammatory, anti-degenerative, and/or structural preservation effects of a combination of particular phytochemical compositions provided by the present disclosure with glucosamine sulfate. In addition, the experiments compared the anti-inflammatory/anti-degenerative effects of the combination of particular sesamin or sesamin-based phytochemical compositions provided by the present disclosure plus glucosamine sulfate, versus the anti-inflammatory/anti-degenerative effects of glucosamine sulfate alone.
Hyaluronic acid (HA) is an important component of the extracellular matrix (ECM), as well as a major component of synovial fluid. HA is present in articular cartilage, and contributes to cartilage resilience. It is known that IL-1 stimulates the synthesis and activity of matrix metalloproteinases and other enzymes that are associated with cartilage degradation as well as rheumatoid arthritis and osteoarthritis. A set of experimental cartilage tissue cultures were prepared using cartilage tissue samples containing HA within their ECMs. As further detailed below, the experimental cartilage tissue cultures selectively incorporated glucosamine sulfate alone; sesamin alone; or a combination of glucosamine sulfate and sesamin. Additionally, a control cartilage tissue culture remained unexposed to either of sesamin or glucosamine sulfate.
ECM degradation was induced in the experimental and control cartilage tissue cultures by exposing the cultures to IL-1. A measure or estimate of a cartilage tissue anti-degenerative effect was defined in accordance with an amount of HA that an experimental cartilage tissue culture released into the tissue culture medium relative to a reference or baseline amount of HA that was released into the tissue culture medium by the control cartilage tissue culture. More particularly, a percentage reduction in the amount of HA released into the tissue culture medium by a given experimental cartilage tissue culture relative to the amount of HA released into the tissue culture medium by the control cartilage tissue culture, indicated below as “Percentage (%) HA Reduction”, conveys or indicates the magnitude of an anti-degenerative or structural preservation effect provided by the experimental cartilage tissue culture under consideration. A corresponding measure or estimate of percentage (%) HA retention by cartilage tissue can also be defined based upon the experimental results. The amount or level of HA present in a given tissue culture medium was detected using ELISA, in a manner that can be understood by one of ordinary skill in the art.

N[C@H]1C(O)O[C@H](CO)[C@@H](O)[C@@H]1O.O=S(=O)(O)O (stereo partly drawn) [Glucosamine Sulfate, glucosamine sulfate, reference compound]
Percentage (%) HA Reduction (glucosamine sulfate 20 mM (9 mg/ml), listed as glucosamine sulfate): approximately 3% | Percentage (%) HA Reduction (glucosamine sulfate 20 mM (9 mg/ml)): 3% | Percentage (%) HA Reduction (glucosamine sulfate 40 mM (18 mg/ml), listed as glucosamine sulfate): approximately 28% | Percentage (%) HA Reduction (glucosamine sulfate 40 mM (18 mg/ml)): 28% | Percentage (%) HA Reduction (glucosamine sulfate 80 mM (36 mg/ml), listed as glucosamine sulfate): approximately 43% | Percentage (%) HA Reduction (glucosamine sulfate 80 mM (36 mg/ml)): 43%
